Experimental data: US20240174744A1, “METHODS OF TREATMENT USING PROTEIN BINDERS TO IRHOM2 EPITOPES” (SCIRHOM GMBH, priority 2021, published 2024)

System: PMA-induced release of IL-6R from U-937 cells
Test: ELISA-based IL-6R release assay, PMA-stimulated U-937 cells
Type: cell-based
Conditions: Homo sapiens, U-937, 1 h, Batimastat 10 μM, PMA 62.5 ng/ml
Protocol: Complementary to Example 26 described above, ELISA-based IL-6R release assays were performed to verify the inhibitory effects of the antibodies of the present disclosure on PMA-induced release of endogenous IL-6R from human U-937 cells.
In brief, on day 1, Nunc black MaxiSorp® 96-well plates (Thermo Fisher Scientific, USA) were coated overnight with 100 μl per well of mouse anti-human IL-6R capture antibody (provided as part of the DuoSet ELISA kit) at 2 μg/ml TBS at 4° C. On day 2, the capture antibody solution was removed and MaxiSorp® plates were blocked with 300 μl per well of TBS, 1% BSA at room temperature for 1-2 hours. […] Using an infinite M1000 (Tecan Group, Switzerland) microplate reader, the fluorescence of each well was collected at an excitation wavelength of 435 nm and an emission wavelength of 555 nm. […]

## CNC(=O)[C@H](Cc1ccccc1)NC(=O)[C@H](CC(C)C)[C@H](CSc1cccs1)C(=O)NO [Batimastat]
Murine (m) and chimeric (ch) antibodies 3 μg/ml
  inhibition at 10 µM: 91.6%
Recombinant murine antibodies 1 μg/ml
  inhibition at 10 µM: 86.6%
